In test [1] the test system is Pseudoperonospora cubensis (the causal agent of cucumber downy mildew). The test is described as follows: Test B: cucumber downy mildew, preventive spray on cucumber seedlings. Conditions: Pseudoperonospora cubensis; for pest or weed control at 0.08 µg/mL: component (b) alone 0.08 ppm (Compound 1 0 ppm); for pest or weed control at 0.4 µg/mL: component (b) alone 0.4 ppm (Compound 1 0 ppm); for pest or weed control at 2 µg/mL: component (b) alone 2 ppm (Compound 1 0 ppm); for pest or weed control at 10 µg/mL: component (b) alone 10 ppm (Compound 1 0 ppm); for pest or weed control at 40 µg/mL: component (b) alone 40 ppm (Compound 1 0 ppm). The class given is in vivo.

The test system of test [2] is Phytophthora infestans (the causal agent of tomato late blight). The test is described as follows: whole plant or invertebrate. It is filed as in vivo. Conditions: Phytophthora infestans.
Setting [3] is: component (b) alone, 2 ppm, read-out: CDM Obsd.
[4] abbreviates: component (b) alone, 10 ppm, read-out: CDM Obsd.
[5] abbreviates: component (b) alone, 40 ppm, read-out: CDM Obsd.
Setting [6] is: read-out: TLB Obsd, component (b) alone, 2 ppm.
Setting [7] is: read-out: TLB Obsd, component (b) alone, 10 ppm.
The mark [8] stands for this setting: read-out: TLB Obsd, component (b) alone, 40 ppm.
[9] abbreviates: Compound 214 alone, read-out: CDM Obsd.
Setting [10] is: Compound 214 alone, read-out: CDM Obsd (observed effect, cucumber downy mildew).
[11] abbreviates: component (b) alone, 0.08 ppm, read-out: CDM Obsd (observed effect, cucumber downy mildew).
Where [12] appears, read: component (b) alone, 0.4 ppm, read-out: CDM Obsd (observed effect, cucumber downy mildew).
Where [13] appears, read: component (b) alone, 2 ppm, read-out: CDM Obsd (observed effect, cucumber downy mildew).
The mark [14] stands for this setting: component (b) alone, 10 ppm, read-out: CDM Obsd (observed effect, cucumber downy mildew).
[15] abbreviates: component (b) alone, 40 ppm, read-out: CDM Obsd (observed effect, cucumber downy mildew).
The mark [16] stands for this setting: read-out: TLB Obsd (observed effect, tomato late blight), component (b) alone, 0.08 ppm.
[17] abbreviates: read-out: TLB Obsd (observed effect, tomato late blight), component (b) alone, 0.4 ppm.
Where [18] appears, read: read-out: TLB Obsd (observed effect, tomato late blight), component (b) alone, 2 ppm.
Setting [19] is: read-out: TLB Obsd (observed effect, tomato late blight), component (b) alone, 10 ppm.
Setting [20] is: read-out: TLB Obsd (observed effect, tomato late blight), component (b) alone, 40 ppm.

SMILES strings stand for the structures. Like-named read-outs stand apart in the source and are kept apart here.

Consider `CSC1=N[C@@](C)(c2ccccc2)C(=O)N1Nc1ccccc1` [fenamidone], for which the pest or weed control at 0.08 µg/mL in test [1] (read-out: CDM Obsd) came out at 65%. Moreover, in test [1] (read-out: CDM Obsd), the pest or weed control at 0.4 µg/mL came out at 47%. Besides, the pest or weed control at 2 µg/mL in test [1] (read-out: CDM Obsd) worked out at 82%. Also, the pest or weed control at 10 µg/mL in test [1] (read-out: CDM Obsd) came out at 100%. For the same molecule, in test [1] (read-out: CDM Obsd), the pest or weed control at 40 µg/mL stood at 100%. The pest or weed control at 0.08 ppm in test [1] (component (b) alone, 0.08 ppm, read-out: CDM Obsd) turned out to be 0%; in test [2] (read-out: TLB Obsd, component (b) alone, 0.08 ppm) it was 22%. The pest or weed control at 0.4 ppm in test [1] (component (b) alone, 0.4 ppm, read-out: CDM Obsd) stood at 0%; in test [2] (read-out: TLB Obsd, component (b) alone, 0.4 ppm) it was 30%. The pest or weed control at 2 ppm in test [1] (setting [3]) is 85%; in test [2] (setting [6]), 99%. Besides, the pest or weed control at 10 ppm in test [1] (setting [4]) and in test [2] (setting [7]) was 100% throughout. For the same molecule, the pest or weed control at 40 ppm in test [1] (setting [5]) and in test [2] (setting [8]) was 100% each time.

`Cc1cc(C(F)(F)F)nn1CC(=O)N1CCC(c2nc(C3=NO[C@@H](c4c(F)cccc4F)C3)cs2)CC1` [Compound 214, 1-[4-[4-[(5R)-5-(2,6-difluorophenyl)-4,5-dihydro-3-isoxazolyl]-2-thiazolyl]-1-piperidinyl]-2-[5-methyl-3-(trifluoromethyl)-1H-pyrazol-1-yl]ethanone]: the pest or weed control at 0.001 ppm in test [1] (Compound 214 alone, 0.001 ppm, read-out: CDM Obsd (observed effect, cucumber downy mildew)) is 16%; in test [2] (read-out: TLB Obsd (observed effect, tomato late blight), Compound 214 alone, 0.001 ppm), 44%; in test [2] (read-out: TLB Obsd, Compound 214 alone, 0.001 ppm), 22%. The pest or weed control at 0.01 ppm turned out to be 88% in test [1] (setting [9]); 83% in test [1] (setting [10]); 98% in test [2] (read-out: TLB Obsd (observed effect, tomato late blight), Compound 214 alone, 0.01 ppm); 98% in test [2] (read-out: TLB Obsd, Compound 214 alone, 0.01 ppm). The pest or weed control at 0.1 ppm worked out at 100% in test [1] (setting [9]); 100% in test [1] (setting [10]); 100% in test [2] (read-out: TLB Obsd (observed effect, tomato late blight), Compound 214 alone, 0.1 ppm); 100% in test [2] (read-out: TLB Obsd, Compound 214 alone, 0.1 ppm).

With `N#Cc1c(Cl)c(Cl)c(Cl)c(C#N)c1Cl` [chlorothalonil], the pest or weed control at 0.016 ppm in test [1] (Table F, component (b) alone at 0.016 ppm, read-out: CDM Obsd) was 47%; in test [2] (read-out: TLB Obsd, Table E, component (b) alone at 0.016 ppm) it was 31%. Also, the pest or weed control at 0.08 ppm in test [1] (Table F, component (b) alone at 0.08 ppm, read-out: CDM Obsd) stood at 33%; in test [1] (setting [11]), 0%; in test [2] (setting [16]) it was 14%; in test [2] (read-out: TLB Obsd, Table E, component (b) alone at 0.08 ppm) it was 0%. For the same molecule, the pest or weed control at 0.4 ppm in test [1] (Table F, component (b) alone at 0.4 ppm, read-out: CDM Obsd) came to 47%; in test [1] (setting [12]), 0%; in test [2] (setting [17]), 14%; in test [2] (read-out: TLB Obsd, Table E, component (b) alone at 0.4 ppm) it was 73%. Besides, the pest or weed control at 2 ppm in test [1] (Table F, component (b) alone at 2 ppm, read-out: CDM Obsd) stood at 99%; in test [1] (setting [13]), 0%; in test [2] (setting [18]), 21%; in test [2] (read-out: TLB Obsd, Table E, component (b) alone at 2 ppm), 100%. The pest or weed control at 10 ppm in test [1] (Table F, component (b) alone at 10 ppm, read-out: CDM Obsd) amounted to 100%; in test [1] (setting [14]), 70%; in test [2] (setting [19]), 100%; in test [2] (read-out: TLB Obsd, Table E, component (b) alone at 10 ppm) it was 100%. The pest or weed control at 40 ppm in test [1] (setting [15]) worked out at 71%; in test [2] (setting [20]), 100%.

With `CO/N=C(/C(=O)OC)c1ccccc1COc1ccccc1C` [kresoxim-methyl], the pest or weed control at 0.4 ppm in test [1] (Table C, component (b) alone 0.4 ppm, read-out: CDM Obsd (disease control rating)) worked out at 47%; in test [2] (read-out: TLB Obsd (disease control rating), Table C, component (b) alone 0.4 ppm), 9%. Also, the pest or weed control at 2 ppm in test [1] (Table C, component (b) alone 2 ppm, read-out: CDM Obsd (disease control rating)) worked out at 47%; in test [1] (setting [3]), 9%; in test [2] (read-out: TLB Obsd (disease control rating), Table C, component (b) alone 2 ppm) it was 33%; in test [2] (setting [6]) it was 32%. In addition, the pest or weed control at 10 ppm was 53% in test [1] (Table C, component (b) alone 10 ppm, read-out: CDM Obsd (disease control rating)); 30% in test [1] (setting [4]); 80% in test [2] (read-out: TLB Obsd (disease control rating), Table C, component (b) alone 10 ppm); 86% in test [2] (setting [7]). The pest or weed control at 40 ppm stood at 57% in test [1] (Table C, component (b) alone 40 ppm, read-out: CDM Obsd (disease control rating)); 37% in test [1] (setting [5]); 99% in test [2] (read-out: TLB Obsd (disease control rating), Table C, component (b) alone 40 ppm); 96% in test [2] (setting [8]). Moreover, the pest or weed control at 200 ppm in test [1] (Table C, component (b) alone 200 ppm, read-out: CDM Obsd (disease control rating)) was 100%; in test [1] (component (b) alone, 200 ppm, read-out: CDM Obsd), 100%; in test [2] (read-out: TLB Obsd (disease control rating), Table C, component (b) alone 200 ppm) it was 99%; in test [2] (read-out: TLB Obsd, component (b) alone, 200 ppm), 100%. Besides, in test [1] (read-out: CDM Obsd), the pest or weed control at 0.4 µg/mL was 47%. In addition, in test [1] (read-out: CDM Obsd), the pest or weed control at 2 µg/mL was 47%. For the same molecule, in test [1] (read-out: CDM Obsd), the pest or weed control at 10 µg/mL was determined as 47%. The pest or weed control at 40 µg/mL in test [1] (read-out: CDM Obsd) is 99%. Further, the pest or weed control at 200 µg/mL in test [1] (component (b) alone 200 ppm (Compound 1 0 ppm), read-out: CDM Obsd) came to 100%. Further, the pest or weed control at 0.04 ppm in test [1] (component (b) alone, 0.04 ppm, read-out: CDM Obsd) came out at 9%; in test [2] (read-out: TLB Obsd, component (b) alone, 0.04 ppm), 8%.

Consider `COC(=O)N(OC)c1ccccc1COc1ccn(-c2ccc(Cl)cc2)n1` [pyraclostrobin], for which the pest or weed control at 0.08 ppm in test [1] (Table D, component (b) alone at 0.08 ppm, read-out: CDM Obsd) came out at 47%; in test [1] (setting [11]) it was 0%; in test [2] (setting [16]), 15%; in test [2] (read-out: TLB Obsd, Table D, component (b) alone at 0.08 ppm), 26%. In addition, the pest or weed control at 0.4 ppm in test [1] (Table D, component (b) alone at 0.4 ppm, read-out: CDM Obsd) turned out to be 47%; in test [1] (setting [12]) it was 0%; in test [2] (setting [17]), 35%; in test [2] (read-out: TLB Obsd, Table D, component (b) alone at 0.4 ppm), 40%. Further, the pest or weed control at 2 ppm in test [1] (Table D, component (b) alone at 2 ppm, read-out: CDM Obsd) amounted to 98%; in test [1] (setting [13]), 68%; in test [2] (setting [18]) it was 63%; in test [2] (read-out: TLB Obsd, Table D, component (b) alone at 2 ppm), 78%. Further, the pest or weed control at 10 ppm in test [1] (Table D, component (b) alone at 10 ppm, read-out: CDM Obsd) was found to be 100%; in test [1] (setting [14]), 100%; in test [2] (setting [19]) it was 90%; in test [2] (read-out: TLB Obsd, Table D, component (b) alone at 10 ppm), 85%. Also, the pest or weed control at 40 ppm turned out to be 100% in test [1] (Table D, component (b) alone at 40 ppm, read-out: CDM Obsd); 100% in test [1] (setting [15]); 94% in test [2] (setting [20]); 95% in test [2] (read-out: TLB Obsd, Table D, component (b) alone at 40 ppm). Also, in test [1] (read-out: CDM Obsd), the pest or weed control at 0.08 µg/mL stood at 47%. Besides, the pest or weed control at 0.4 µg/mL in test [1] (read-out: CDM Obsd) came to 47%. For the same molecule, in test [1] (read-out: CDM Obsd), the pest or weed control at 2 µg/mL came out at 57%. Also, the pest or weed control at 10 µg/mL in test [1] (read-out: CDM Obsd) is 100%. Further, in test [1] (read-out: CDM Obsd), the pest or weed control at 40 µg/mL turned out to be 100%.
